Bridge positions count the residues as written; N and C are the ends. Peptide text beside a SMILES is read from it. Bounds are passed on as bounds.

The nature of data set [1]: toxicity in vivo, LD50 after intracerebroventricular injection. The settings on record: mouse, icv or intrathecal, 20 g C57/BL6 mice. How it is done: Groups of six to eight mice per dose were injected with 5 μl peptide solution containing 0.1% (w/v) bovine serum albumin and 0.9% (w/v) NaCl. The LD50 values are set out in Table 5.
A further data set addresses T1, hKv3.2 (Homo sapiens, UniProt Q96PR1).
T1 sequence (Q96PR1 1-638): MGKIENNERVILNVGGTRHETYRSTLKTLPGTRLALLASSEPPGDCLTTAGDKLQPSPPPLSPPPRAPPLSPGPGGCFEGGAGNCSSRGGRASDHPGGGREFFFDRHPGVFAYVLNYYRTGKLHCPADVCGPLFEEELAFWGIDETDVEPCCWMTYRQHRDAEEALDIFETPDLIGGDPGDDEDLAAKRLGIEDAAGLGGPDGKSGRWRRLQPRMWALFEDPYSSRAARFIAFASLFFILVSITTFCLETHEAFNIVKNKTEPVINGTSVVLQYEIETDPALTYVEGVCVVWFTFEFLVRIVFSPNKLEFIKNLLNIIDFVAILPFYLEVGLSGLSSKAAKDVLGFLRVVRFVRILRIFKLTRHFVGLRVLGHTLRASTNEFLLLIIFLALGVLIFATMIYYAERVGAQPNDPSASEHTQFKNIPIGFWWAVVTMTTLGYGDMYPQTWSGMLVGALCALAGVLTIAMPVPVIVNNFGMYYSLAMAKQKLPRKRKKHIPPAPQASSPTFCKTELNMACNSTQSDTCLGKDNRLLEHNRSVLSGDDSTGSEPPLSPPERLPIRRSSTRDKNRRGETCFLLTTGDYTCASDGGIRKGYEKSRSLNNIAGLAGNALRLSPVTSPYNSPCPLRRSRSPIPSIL
In words: patch-clamp whole-cell recording, K+ current block. Format: cell-based. As to the method: (§1) Electrophysiological experiments were carried out at 22-24° C. using the patch-clamp whole-cell recording mode. Cells were bathed with mammalian Ringer's solution (in mM): 160 NaCl, 4.5 KCl, 2 CaCl2, 1 MgCl2, and 10 HEPES (pH 7.4 with NaOH), with an osmolarity of 290-320 mOsm. […] A syringe-driven perfusion device was used to exchange the external recording bath solution. Two internal pipette solutions were used, one for measuring voltage-gated K^+ currents that contained (in mM): 155 KF, 2 MgCl2, 10 HEPES, and 10 EGTA (pH 7.2 with KOH), with an osmolarity of 290-320 mOsm and another for measuring Ca^2+-activated K^+ currents that contained (in mM): 135 K-aspartate, 8.7 CaCl2, 2 MgCl2, 10 EGTA, 10 HEPES (pH 7.2 with KOH), with an osmolarity of 290-320 mOsm. A free [Ca^2+]i of 1 μM was calculated. All currents through voltage-gated K^+ channels were elicited by 200 ms depolarising voltage steps from −80 to +40 mV. Potassium currents through KCa1.1, KCa2.1 and KCa3.1 were elicited by 1 μM internal [Ca^2+]i and 400 ms voltage ramps from −120 to 0 mV (for KCa3.1 channel and KCa1.1 channel) and from −120 to +40 mV (for KCa2.1 channel). Electrodes were pulled from glass capillaries (Science Products, Germany), and fire-polished to resistances of 2.5-5 MΩ. Membrane currents were measured with an EPC-9 or EPC-10 patch-clamp amplifier (HEKA Elektronik, Lambrecht, Germany) interfaced to a Macintosh computer running acquisition and analysis software (Pulse and PulseFit). When voltage-gated K^+ currents were measured, the capacitive and leak currents were subtracted using a P/10 procedure. Series resistance compensation (>80%) was used for currents above 2 nA. The holding potential was −80 mV in all experiments.
(In general: In patch-clamp work, channel activity is measured electrically.)

For a further data set, the target named is hIK1 (KCa3.1) (Homo sapiens, UniProt O15554). As to the kind of experiment: patch-clamp whole-cell recording, Ca2+-activated K+ current block. It counts as cell-based. How it is done: as §1
Sequence of hIK1 (KCa3.1) (O15554 whole entry): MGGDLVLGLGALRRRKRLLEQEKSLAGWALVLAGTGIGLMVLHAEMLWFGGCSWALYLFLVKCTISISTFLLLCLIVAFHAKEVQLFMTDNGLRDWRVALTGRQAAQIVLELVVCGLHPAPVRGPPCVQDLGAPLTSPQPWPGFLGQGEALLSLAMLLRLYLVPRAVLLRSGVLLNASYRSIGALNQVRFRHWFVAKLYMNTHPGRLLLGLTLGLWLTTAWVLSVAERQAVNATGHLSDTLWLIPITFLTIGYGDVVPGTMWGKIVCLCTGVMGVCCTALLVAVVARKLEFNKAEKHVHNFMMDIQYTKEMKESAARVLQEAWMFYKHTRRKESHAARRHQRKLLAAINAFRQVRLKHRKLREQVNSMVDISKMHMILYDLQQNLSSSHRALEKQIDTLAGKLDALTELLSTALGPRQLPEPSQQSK
Another data set deals with mKv1.1 (Mus musculus, UniProt P16388). In words: patch-clamp whole-cell recording, K+ current block. Format: cell-based. As to the method: as §1
Sequence of mKv1.1 (P16388 whole entry): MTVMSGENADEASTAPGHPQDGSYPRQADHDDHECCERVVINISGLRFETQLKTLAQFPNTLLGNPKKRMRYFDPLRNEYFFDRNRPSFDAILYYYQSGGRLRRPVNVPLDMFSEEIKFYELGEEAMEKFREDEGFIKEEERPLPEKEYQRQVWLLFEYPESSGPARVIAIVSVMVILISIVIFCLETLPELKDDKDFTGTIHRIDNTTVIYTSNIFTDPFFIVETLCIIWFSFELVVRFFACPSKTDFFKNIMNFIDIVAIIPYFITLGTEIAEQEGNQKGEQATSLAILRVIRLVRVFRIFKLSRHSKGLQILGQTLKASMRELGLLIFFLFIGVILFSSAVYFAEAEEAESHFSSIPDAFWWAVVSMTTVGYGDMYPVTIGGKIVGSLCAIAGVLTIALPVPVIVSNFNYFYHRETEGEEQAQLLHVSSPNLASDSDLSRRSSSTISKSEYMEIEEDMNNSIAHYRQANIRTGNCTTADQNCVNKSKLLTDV
In another data set the target is hKv1.2 (Homo sapiens, UniProt P16389). In words: patch-clamp whole-cell recording, K+ current block. It counts as cell-based. As to the method: as §1
Sequence of hKv1.2 (P16389 whole entry): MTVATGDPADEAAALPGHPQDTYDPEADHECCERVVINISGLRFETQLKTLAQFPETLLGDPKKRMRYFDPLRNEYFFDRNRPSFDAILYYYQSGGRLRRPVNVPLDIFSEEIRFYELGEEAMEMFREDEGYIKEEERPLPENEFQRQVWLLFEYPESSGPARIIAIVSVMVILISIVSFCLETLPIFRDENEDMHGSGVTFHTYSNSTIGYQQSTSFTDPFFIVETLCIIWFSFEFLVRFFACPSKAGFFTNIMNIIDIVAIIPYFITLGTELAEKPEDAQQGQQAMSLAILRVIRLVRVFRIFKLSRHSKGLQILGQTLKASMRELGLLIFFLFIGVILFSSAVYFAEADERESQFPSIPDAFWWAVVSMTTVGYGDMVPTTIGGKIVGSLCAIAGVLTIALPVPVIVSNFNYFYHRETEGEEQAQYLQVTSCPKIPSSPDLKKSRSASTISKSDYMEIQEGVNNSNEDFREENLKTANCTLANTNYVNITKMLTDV
The target in the next data set is mKv1.3 (Mus musculus, UniProt P16390). In words: patch-clamp whole-cell recording, K+ current block. Format: cell-based. How it is done: as §1
Sequence of mKv1.3 (P16390 whole entry): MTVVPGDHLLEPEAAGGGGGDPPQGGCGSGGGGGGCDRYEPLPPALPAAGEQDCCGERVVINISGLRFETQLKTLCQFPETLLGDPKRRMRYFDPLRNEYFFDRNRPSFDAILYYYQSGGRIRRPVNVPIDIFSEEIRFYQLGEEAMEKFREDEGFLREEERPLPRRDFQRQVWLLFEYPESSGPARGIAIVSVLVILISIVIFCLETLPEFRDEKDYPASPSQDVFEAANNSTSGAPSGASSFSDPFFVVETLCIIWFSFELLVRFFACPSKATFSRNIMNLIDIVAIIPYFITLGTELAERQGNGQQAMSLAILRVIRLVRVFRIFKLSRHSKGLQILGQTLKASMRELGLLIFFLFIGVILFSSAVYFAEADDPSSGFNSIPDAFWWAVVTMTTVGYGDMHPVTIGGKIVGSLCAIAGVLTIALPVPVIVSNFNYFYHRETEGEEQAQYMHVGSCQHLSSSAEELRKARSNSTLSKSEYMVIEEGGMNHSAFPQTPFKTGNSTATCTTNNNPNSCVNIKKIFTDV
The target of data set [2] is mKv1.3 (mouse (only by the printed prefix m)) (UniProt P16390).
For data set [3], the target named is mKv1.1 (mouse (only by the printed prefix m)) (UniProt P16388).
Data set [4] deals with hKv3.2 (human (only by the printed prefix h)) (UniProt Q96PR1).
Data set [5] has as its target hKv1.2 (human (only by the printed prefix h)) (UniProt P16389).
Data set [6] deals with hIK1 (human (only by the printed prefix h)) (UniProt O15554).

Broadly, the LD50 is the dose expected to kill half of the subjects tested. A lower LD50 goes with a more toxic substance. The term IC50 denotes the concentration that gives 50% inhibition. A lower IC50 goes with greater potency in that assay. In [1], `CC[C@H](C)[C@@H]1NC(=O)[C@H](CCCCN)NC(=O)[C@@H](NC(=O)[C@H](CCCCN)NC(=O)[C@@H](NC(=O)[C@H](CC(N)=O)NC(=O)[C@@H](NC(=O)[C@@H](NC(=O)[C@@H](NC(=O)CNC(C)=O)C(C)C)[C@@H](C)CC)[C@@H](C)CC)C(C)C)CSSC[C@@H]2NC(=O)[C@H](CCCCN)NC(=O)CNC(=O)[C@H](Cc3ccccc3)NC(=O)[C@H](CCCNC(=N)N)NC(=O)[C@H](CCSC)NC(=O)CNC(=O)[C@H](C)NC(=O)[C@H](CCCCN)NC(=O)[C@H](CCCCN)NC(=O)[C@@H]3CSSC[C@@H](C(=O)N[C@H](C(=O)N4CCC[C@H]4C(=O)N[C@@H](CCCCN)C(N)=O)[C@@H](C)O)NC(=O)[C@H](Cc4c[nH]cn4)NC(=O)[C@H](CSSC[C@H](NC(=O)[C@H](CCC(N)=O)NC(=O)[C@H](CCCNC(=N)N)NC(=O)[C@H](CO)NC1=O)C(=O)N[C@@H](CC(C)C)C(=O)N[C@@H](CCC(=O)O)C(=O)N1CCC[C@H]1C(=O)N3)NC(=O)[C@H](CCCCN)NC(=O)CNC(=O)[C@H](CC(N)=O)NC(=O)[C@H](CCSC)NC2=O` [Ac-OsK1-NH2] displayed an LD50 of 11 µg/kg. At hKv3.2, the IC50 was over 1000 nM.
`CC[C@H](C)[C@@H]1NC(=O)[C@H](CCCCN)NC(=O)[C@@H](NC(=O)[C@H](CCCCN)NC(=O)[C@@H](NC(=O)[C@H](CC(N)=O)NC(=O)[C@@H](NC(=O)[C@@H](NC(=O)[C@@H](NC(=O)CN)C(C)C)[C@@H](C)CC)[C@@H](C)CC)C(C)C)CSSC[C@@H]2NC(=O)[C@H](CCCCN)NC(=O)CNC(=O)[C@H](Cc3ccccc3)NC(=O)[C@H](CCCNC(=N)N)NC(=O)[C@H](CCSC)NC(=O)CNC(=O)[C@H](C)NC(=O)[C@H](CC(=O)O)NC(=O)[C@H](CCCCN)NC(=O)[C@@H]3CSSC[C@@H](C(=O)N[C@@H](Cc4ccc(O)cc4)C(=O)N4CCC[C@H]4C(=O)N[C@@H](CCCCN)C(=O)O)NC(=O)[C@H](Cc4c[nH]cn4)NC(=O)[C@H](CSSC[C@H](NC(=O)[C@H](CCC(N)=O)NC(=O)[C@H](CCCNC(=N)N)NC(=O)[C@H](CO)NC1=O)C(=O)N[C@@H](CC(C)C)C(=O)N[C@@H](CCCCN)C(=O)N1CCC[C@H]1C(=O)N3)NC(=O)[C@H](CCCCN)NC(=O)CNC(=O)[C@H](CC(N)=O)NC(=O)[C@H](CCSC)NC2=O` (H-GVIINVKCKISRQCLKPCKDAGMRFGKCMNGKCHCYPK-OH; disulfide 8-28, 14-33, 18-35): the half-maximal inhibitory concentration (IC50) was determined as 885 ± 18 nM against hIK1 (KCa3.1), 34.4 ± 0.3 nM on mKv1.1, 231.8 ± 0.1 nM against hKv1.2 and 0.122 ± 0.007 nM against mKv1.3. The molecule further gave an LD50 in [1] of 9 µg/kg.
As for `CC[C@H](C)[C@@H]1NC(=O)[C@H](CCCCN)NC(=O)[C@@H](NC(=O)[C@H](CCCCN)NC(=O)[C@@H](NC(=O)[C@H](CC(N)=O)NC(=O)[C@@H](NC(=O)[C@@H](NC(=O)[C@@H](NC(=O)CN)C(C)C)[C@@H](C)CC)[C@@H](C)CC)C(C)C)CSSC[C@@H]2NC(=O)[C@H](CCCCN)NC(=O)CNC(=O)[C@H](Cc3ccccc3)NC(=O)[C@H](CCCNC(=N)N)NC(=O)[C@H](CCSC)NC(=O)CNC(=O)[C@H](C)NC(=O)[C@H](CC(=O)O)NC(=O)[C@H](CCCCN)NC(=O)[C@@H]3CSSC[C@@H](C(=O)N[C@H](C(=O)N4CCC[C@H]4C(=O)N[C@@H](CCCCN)C(=O)O)[C@@H](C)O)NC(=O)[C@H](Cc4c[nH]cn4)NC(=O)[C@H](CSSC[C@H](NC(=O)[C@H](CCC(N)=O)NC(=O)[C@H](CCCNC(=N)N)NC(=O)[C@H](CO)NC1=O)C(=O)N[C@@H](CC(C)C)C(=O)N[C@@H](CCCCN)C(=O)N1CCC[C@H]1C(=O)N3)NC(=O)[C@H](CCCCN)NC(=O)CNC(=O)[C@H](CC(N)=O)NC(=O)[C@H](CCSC)NC2=O` (H-GVIINVKCKISRQCLKPCKDAGMRFGKCMNGKCHCTPK-OH; disulfide 8-28, 14-33, 18-35), the “activity on IK1 (in words)” value on hIK1 (KCa3.1) is on record as “shares the same activity on IK1”. In [1], this molecule gave an LD50 of 2.5 µg/kg. Also, the IC50 against hKv3.2 was over 1000 nM. Further, at mKv1.3, the “activity on Kv1.3 channel (in words)” value is reported as “the most potent Kv1.3 channel blocker characterized so far”. For the same molecule, the “potency on the Kv1.3 channel relative to OsK1” value on mKv1.3 (compared with OsK1) is reported as “about five times more potent”.
Regarding `CC[C@H](C)[C@@H]1NC(=O)[C@H](CCCCN)NC(=O)[C@@H](NC(=O)[C@H](CCCCN)NC(=O)[C@@H](NC(=O)[C@H](CC(N)=O)NC(=O)[C@@H](NC(=O)[C@H](CCCCN)NC(=O)[C@@H](NC(=O)CN)C(C)C)[C@@H](C)CC)C(C)C)CSSC[C@@H]2NC(=O)[C@H](CCCCN)NC(=O)CNC(=O)[C@H](Cc3ccccc3)NC(=O)[C@H](CCCNC(=N)N)NC(=O)[C@H](CCSC)NC(=O)CNC(=O)[C@H](C)NC(=O)[C@H](CC(=O)O)NC(=O)[C@H](CCCCN)NC(=O)[C@@H]3CSSC[C@@H](C(=O)N[C@H](C(=O)N4CCC[C@H]4C(=O)N[C@@H](CCCCN)C(N)=O)[C@@H](C)O)NC(=O)[C@H](Cc4c[nH]cn4)NC(=O)[C@H](CSSC[C@H](NC(=O)[C@H](CCC(N)=O)NC(=O)[C@H](CCCNC(=N)N)NC(=O)[C@H](CO)NC1=O)C(=O)N[C@@H](CC(C)C)C(=O)N[C@@H](CCCCN)C(=O)N1CCC[C@H]1C(=O)N3)NC(=O)[C@H](CCCCN)NC(=O)CNC(=O)[C@H](CC(N)=O)NC(=O)[C@H](CCSC)NC2=O` (H-GVKINVKCKISRQCLKPCKDAGMRFGKCMNGKCHCTPK-NH2; disulfide 8-28, 14-33, 18-35), the IC50 against hIK1 (KCa3.1) and against hKv3.2 was over 1000 nM in each case. The molecule further gave a 50% lethal dose (LD50) in [1] of 2.25 µg/kg.
For [A^34]-OsK1 (peptide), the ID50 in data set [2] was 0.034 nM; in data set [3], 15.8 nM; in [4], over 1000 nM; in data set [5] it was 65 nM; in data set [6] it was over 1000 nM.
With `CC[C@H](C)[C@@H]1NC(=O)[C@H](CCCCN)NC(=O)[C@@H](NC(=O)[C@H](CCCCN)NC(=O)[C@@H](NC(=O)[C@H](CC(N)=O)NC(=O)[C@@H](NC(=O)[C@@H](NC(=O)[C@@H](NC(=O)CN)C(C)C)[C@@H](C)CC)[C@@H](C)CC)C(C)C)CSSC[C@@H]2NC(=O)[C@H](CCCCN)NC(=O)CNC(=O)[C@H](Cc3ccccc3)NC(=O)[C@H](CCCNC(=N)N)NC(=O)[C@H](CCSC)NC(=O)CNC(=O)[C@H](C)NC(=O)[C@H](CC(=O)O)NC(=O)[C@H](CCCCN)NC(=O)[C@@H]3CSSC[C@@H](C(=O)N[C@H](C(=O)N4CCC[C@H]4C(=O)N[C@@H](CCCCN)C(N)=O)[C@@H](C)O)NC(=O)[C@H](Cc4c[nH]cn4)NC(=O)[C@H](CSSC[C@H](NC(=O)[C@H](CCC(N)=O)NC(=O)[C@H](CCCNC(=N)N)NC(=O)[C@H](CO)NC1=O)C(=O)N[C@@H](CC(C)C)C(=O)N[C@@H](CCCCN)C(=O)N1CCC[C@H]1C(=O)N3)NC(=O)[C@H](CCCCN)NC(=O)CNC(=O)[C@H](CC(N)=O)NC(=O)[C@H](CCSC)NC2=O` (H-GVIINVKCKISRQCLKPCKDAGMRFGKCMNGKCHCTPK-NH2; disulfide 8-28, 14-33, 18-35), the IC50 against hIK1 (KCa3.1) was over 1000 nM; against mKv1.1, 0.36 ± 0.04 nM; against mKv1.3 it was 0.075 ± 0.006 nM. The LD50 in data set [1] turned out to be 2.25 µg/kg.

For the origin of these results see patent US7745575B1 (Cellpep Pharma Inc., priority 2004, dated 2010).
